One assay deals with mammalian pols. Description: DNA polymerase assays, all mammalian pols tested. The class given is biochemical. The settings on record: all mammalian pols tested (α, β, γ, δ, ε, η, ι, κ, λ); read-out: range of IC50 values for mammalian pols. The source says: (§1) Pol α was purified from calf thymus by immuno-affinity column chromatography as described by Tamai et al.. Recombinant rat pol β was purified from E. coli JMpβ5 as described by Date et al.. The human pol γ catalytic gene was cloned into pFastBac. Histidine-tagged enzyme was expressed using the BAC-TO-BAC HT Baculovirus Expression System according to the supplier's manual (LIFE TECHNOLOGIES, MD, USA) and purified using ProBoundresin (Invitrogen Japan, Tokyo, Japan). Human pols δ and ε were purified by the nuclear fractionation of human peripheral blood cancer cells (Molt-4) using the second subunit of pols δ and ε-conjugated affinity column chromatography, respectively. Recombinant human pols η and ι tagged with His6 at their C-terminal were expressed in SF9 insect cells using the baculovirus expression system, and were purified as described previously. A truncated form of pol κ (i.e., hDINB1DC) with 6 x His-tags attached at the C-terminal was overproduced using the BAC-to-BAC Baculovirus Expression System kit (GIBCO BRL, MD, USA) and purified as described previously. […]
(§2) For pols, poly(dA)/oligo(dT)12-18 (A/T = 2/1) and dTTP were used as the DNA template-primer and nucleotide (i.e., dNTP) substrate, respectively. […] Activity without the inhibitor was considered 100%, and the remaining activity at each concentration of the inhibitor was determined relative to this value. […]

The next assay concerns HL-60 cells. The assay is described as follows: HL-60 cancer cell growth, MTT assay. Format: cell-based, human. The settings on record: 50 μM, 24 hr. The procedure: To investigate the effects of KA-A derivatives in cultured cells, we used a human cancer cell line, HL-60, human promyelocytic leukemia cells (IFO 050022), supplied by the Health Science Research Resources Bank (Osaka, Japan). The cells were routinely cultured in RPMI 1640 medium supplemented with 10% fetal bovine serum, 100 μg/mL streptomycin, 100 unit/mL penicillin, and 1.6 mg/mL NaHCO3. The cells were cultured at 37 °C in standard medium in a humidified atmosphere of 5% CO2-95% air. The rate of the cancer cell growth of the compound was investigated as follows: high concentrations (10 mM) of the compounds were dissolved in DMSO and stocked. Approximately 1 x 10^4 cells per well were inoculated in 96-well micro plates, and then the compound stock solution was diluted to various concentrations, and applied to each well. After incubation for 24 hr, the survival rate was determined by MTT (3-(4,5-dimethylthiazol-2-yl)-2,5-diphenyl tetrazolium bromide) assay.
(In general: Tetrazolium assays rely on reduction of a dye to a coloured formazan, in cell work by metabolically active cells.)

Assay [1] has as its target T1, E. coli DNA polymerase I (Klenow fragment) (Escherichia coli, UniProt P00582).
T1 construct: The Klenow fragment of pol I from E. coli; purchased Worthington Biochemical Corp. (Freehold, NJ, USA)
The assay is described as follows: DNA polymerase assay, Klenow fragment. The class given is biochemical.
Source text: as §1, §2

For another assay, the target named is T2, Human DNA polymerase η (Homo sapiens, UniProt Q9Y253).
T2 construct: His6 (C); made in house; host or cells: SF9 insect cells (baculovirus)
T2 sequence (Q9Y253 1-713): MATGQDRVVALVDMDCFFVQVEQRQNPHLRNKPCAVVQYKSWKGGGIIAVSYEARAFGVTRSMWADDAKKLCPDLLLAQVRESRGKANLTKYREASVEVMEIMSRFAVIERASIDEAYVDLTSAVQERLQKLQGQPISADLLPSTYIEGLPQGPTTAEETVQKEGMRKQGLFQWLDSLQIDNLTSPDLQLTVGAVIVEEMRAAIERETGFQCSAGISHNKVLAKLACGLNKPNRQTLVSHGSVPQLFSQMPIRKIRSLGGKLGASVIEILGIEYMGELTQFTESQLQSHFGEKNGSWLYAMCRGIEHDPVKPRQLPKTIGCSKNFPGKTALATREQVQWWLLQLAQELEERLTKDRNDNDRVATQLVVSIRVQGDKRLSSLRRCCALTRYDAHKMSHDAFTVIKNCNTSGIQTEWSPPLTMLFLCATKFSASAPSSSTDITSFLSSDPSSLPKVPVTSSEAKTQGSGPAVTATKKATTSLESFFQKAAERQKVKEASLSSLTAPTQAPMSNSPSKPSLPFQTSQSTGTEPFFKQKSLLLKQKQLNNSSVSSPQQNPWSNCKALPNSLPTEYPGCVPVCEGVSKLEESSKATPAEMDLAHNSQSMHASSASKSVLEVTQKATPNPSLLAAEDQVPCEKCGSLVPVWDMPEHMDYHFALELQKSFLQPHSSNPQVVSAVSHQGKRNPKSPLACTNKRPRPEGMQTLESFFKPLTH
The assay is described as follows: DNA polymerase assay, human pol η. Format: biochemical.
Source text: as §1, §2

Molecules are shown by their SMILES.

T1 sequence (P00582 324-928): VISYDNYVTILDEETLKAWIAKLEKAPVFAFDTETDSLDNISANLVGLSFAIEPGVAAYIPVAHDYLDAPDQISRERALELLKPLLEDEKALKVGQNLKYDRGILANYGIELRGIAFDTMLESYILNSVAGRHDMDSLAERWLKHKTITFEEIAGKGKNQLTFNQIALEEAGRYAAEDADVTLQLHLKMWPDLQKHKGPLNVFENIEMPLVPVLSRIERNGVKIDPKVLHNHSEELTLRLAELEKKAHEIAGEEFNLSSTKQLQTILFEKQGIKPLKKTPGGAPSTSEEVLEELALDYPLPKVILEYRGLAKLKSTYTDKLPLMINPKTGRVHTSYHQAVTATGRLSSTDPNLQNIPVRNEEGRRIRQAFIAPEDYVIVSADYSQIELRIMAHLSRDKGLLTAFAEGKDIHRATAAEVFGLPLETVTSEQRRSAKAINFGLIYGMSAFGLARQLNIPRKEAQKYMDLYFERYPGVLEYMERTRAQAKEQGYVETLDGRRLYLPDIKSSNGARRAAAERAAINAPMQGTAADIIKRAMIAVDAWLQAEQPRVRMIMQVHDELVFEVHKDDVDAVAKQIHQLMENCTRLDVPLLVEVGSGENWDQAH

Usually IC50 stands for the concentration that gives 50% inhibition. For `CC1=CC[C@H]2C(C)(C)CCC[C@]2(C)[C@H]1CCCCCCCCCCCCCCCCC(=O)O` (relative stereo) [compound 11, (1S*,4aS*,8aS*)-17-(1,4,4a,5,6,7,8,8a-octahydro-2,5,5,8a-tetramethylnaphthalen-1-yl)heptadecanoic acid], the IC50 at mammalian pols is 3.22 to 8.76 µM; in assay [1] it was more than 200 µM; at Human DNA polymerase η, 7.45 ± 0.37 µM. In the assay with HL-60 cells, the “Growth inhibitory effect on HL-60 cells, rank among compounds tested” value was “strongest growth inhibitory effect”.

The values are drawn from article PMC6253949, “The Inhibitory Action of Kohamaic Acid A Derivatives on Mammalian DNA Polymerase β” (Molecules, 2008).
